Literature values, collected in US20250019345A1, “NEW CANNABINOID-GAB[…] USES THEREOF” (LONDON PHARMACEUTICALS AND RESEARCH CORPORATION, priority 2021, published 2025).

Details: after oral administration; for Tmax: cannabinoids

Compound | Tmax [h] | bioavailability
C=C(C)[C@@H]1CCC(C)=C[C@H]1c1c(O)cc(CCCCC)cc1O [CBD, cannabidiol] | ~4 | 
CCCCCc1cc(O)c2c(c1)OC(C)(C)[C@@H]1CCC(C)=C[C@@H]21 [THC, delta-9-tetrahydrocannabinol] | ~4 | 
CC(C)C[C@H](CN)CC(=O)O [pregabalin] |  | exceed 90%
